ChEMBL document CHEMBL3112448, “Selective COX-1 inhibition as a target of theranostic novel diarylisoxazoles” (Eur J Med Chem, 2014)
Active and inactive are the calls of the source. No cut-off for these calls is given here.

The compounds below were run against Prostaglandin G/H synthase 1 (Homo sapiens, UniProt P23219) (assay: Inhibition of COX1 in human OVCAR3 cells using [14C]arachidonic acid as substrate preincubated for 30 mins before substrate addition by radioactivity scanning technique). Details: not given.
Format: cell-based, OVCAR-3

Sequence of Prostaglandin G/H synthase 1 (P23219 whole entry): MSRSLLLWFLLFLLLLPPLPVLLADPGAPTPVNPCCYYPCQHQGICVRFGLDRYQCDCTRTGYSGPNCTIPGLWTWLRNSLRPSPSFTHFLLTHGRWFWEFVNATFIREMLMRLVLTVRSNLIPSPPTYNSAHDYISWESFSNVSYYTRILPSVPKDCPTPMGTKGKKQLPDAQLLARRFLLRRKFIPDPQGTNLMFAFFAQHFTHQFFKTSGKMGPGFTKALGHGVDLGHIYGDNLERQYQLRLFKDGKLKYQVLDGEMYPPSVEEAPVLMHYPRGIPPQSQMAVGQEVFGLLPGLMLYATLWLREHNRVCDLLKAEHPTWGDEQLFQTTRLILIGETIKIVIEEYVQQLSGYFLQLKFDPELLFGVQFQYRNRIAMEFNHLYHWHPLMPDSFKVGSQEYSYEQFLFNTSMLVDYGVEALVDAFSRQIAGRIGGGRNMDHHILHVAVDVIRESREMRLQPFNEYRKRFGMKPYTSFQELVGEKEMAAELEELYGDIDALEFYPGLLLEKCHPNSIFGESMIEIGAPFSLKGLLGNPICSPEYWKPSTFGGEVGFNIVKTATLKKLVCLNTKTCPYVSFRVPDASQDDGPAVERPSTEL

Row | IC50 [nM] | Compound
1 | 580 | Nc1onc(-c2ccc(Cl)o2)c1-c1ccccc1

What follows are compounds tested against T1, Prostaglandin G/H synthase 1 (Ovis aries) (UniProt P05979). Details: at 50 µM.
T1 sequence (whole entry): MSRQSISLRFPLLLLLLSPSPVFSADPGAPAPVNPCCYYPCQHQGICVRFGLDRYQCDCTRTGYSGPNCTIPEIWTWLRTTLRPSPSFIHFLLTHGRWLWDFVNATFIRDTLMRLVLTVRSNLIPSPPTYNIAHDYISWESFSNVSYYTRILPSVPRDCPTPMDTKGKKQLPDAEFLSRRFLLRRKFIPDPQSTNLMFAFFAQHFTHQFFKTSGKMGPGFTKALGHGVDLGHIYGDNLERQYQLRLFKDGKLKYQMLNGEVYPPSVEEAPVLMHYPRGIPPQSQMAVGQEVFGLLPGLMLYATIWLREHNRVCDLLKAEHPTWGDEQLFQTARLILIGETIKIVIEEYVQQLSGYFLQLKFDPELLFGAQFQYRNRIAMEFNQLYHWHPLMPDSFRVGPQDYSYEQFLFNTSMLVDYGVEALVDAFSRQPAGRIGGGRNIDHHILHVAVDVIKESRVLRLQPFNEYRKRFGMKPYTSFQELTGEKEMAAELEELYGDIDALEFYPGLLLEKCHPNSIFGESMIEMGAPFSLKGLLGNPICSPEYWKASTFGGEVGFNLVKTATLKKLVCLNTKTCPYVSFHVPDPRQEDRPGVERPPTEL
Description: Inhibition of ovine COX1 at 50 uM by peroxidase activity-based colorimetric assay

Row | Compound | inhibition
2 | Cc1onc(-c2ccc(Cl)o2)c1-c1ccc(N)cc1 | 78%
3 | CC(=O)N(C(C)=O)c1onc(-c2ccc(Cl)o2)c1-c1ccccc1 | 25%
4 | Cc1onc(-c2ccc(Cl)o2)c1-c1ccc([N+](=O)[O-])cc1 | inactive
5 | O=C(O)Cc1onc(-c2ccc(Cl)o2)c1-c1ccccc1 | 32%
6 | COC(=O)Cc1onc(-c2ccc(Cl)o2)c1-c1ccccc1 | inactive
7 | COc1ccccc1-c1noc(C(F)(F)F)c1-c1ccccc1 | 39%
8 | COc1ccccc1-c1noc(C)c1-c1ccccc1 | 61%

Results, then the compound that gave them:

Row | inhibition | Compound
9 | 55% | CCc1onc(-c2ccc(Cl)o2)c1-c1ccccc1
10 | 94% | Nc1onc(-c2ccc(Cl)o2)c1-c1ccccc1
11 | 35% | Clc1ccc(-c2noc(CBr)c2-c2ccccc2)o1
12 | 12% | N#CCc1onc(-c2ccc(Cl)o2)c1-c1ccccc1
13 | 17% | CCCc1onc(-c2ccc(Cl)o2)c1-c1ccccc1
14 | 69% | Cc1onc(-c2ccc(Cl)o2)c1-c1ccccc1
15 | inactive | CN(C)c1onc(-c2ccc(Cl)o2)c1-c1ccccc1
